Publication PMC6199744, “Development of Chemical Proteomics for the Folateome and Analysis of the Kinetoplastid Folateome” (ACS Infectious Diseases, 2018)

Test system: L. major lysate proteins
Assay: Multitargeted bead mixture chemoproteomics, single concentration competition, proteome-wide
Type: binding
Details: for fold change / fold change relative to vehicle control: vehicle control = 1; for fold change relative to vehicle control: competition with free ligand

## CCCCCCOc1ccc(Cc2cnc(N)nc2N)cc1 [compound 1]
Protein LMJF.22.1460 I/6 AUTOANTIGEN-LIKE PROTEIN
  fold change: 0.95
Protein LMJF.22.1540 ALANYL-TRNA SYNTHETASE, PUTATIVE
  fold change vs vehicle control: 0.85
Protein LMJF.23.0370 […] OXIDASE SUBUNIT 10, PUTATIVE
  fold change vs vehicle control: 1.08
Protein LMJF.23.0830 NA/H ANTIPORTER-LIKE PROTEIN
  fold change: 0.89
Protein LMJF.23.1020 HYPOTHETICAL PROTEIN, UNKNOWN FUNCTION
  fold change: 0.87
Protein LMJF.23.1220 T-COMPLEX PROTEIN 1, GAMMA SUBUNIT, PUTATIVE
  fold change: 1.03
Protein LMJF.24.0140 ANKYRIN/TPR REPEAT PROTEIN
  fold change vs vehicle control: 1.09
Protein LMJF.24.0280 DYNEIN INTERMEDIATE-CHAIN-LIKE PROTEIN
  fold change: 0.97
Protein LMJF.24.0770 MALIC ENZYME, PUTATIVE
  fold change: 0.95
Protein LMJF.24.1510 IGE-DEPENDENT HISTAMINE-RELEASING FACTOR, PUTATIVE
  fold change relative to vehicle control: 1.09
Protein LMJF.24.1630, SUCCINATE DEHYDROGENASE FLAVOPROTEIN, PUTATIVE
  fold change vs vehicle control: 0.9
Protein LMJF.24.1840 LYSOPHOSPHOLIPASE, PUTATIVE
  fold change vs vehicle control: 1.07
Protein LMJF.24.2060 TRANSKETOLASE
  fold change relative to vehicle control: 0.84
Protein LMJF.24.2250 FATTY-ACID DESATURASE, PUTATIVE
  fold change: 1.09
Protein LMJF.25.0120 ELECTRON TRANSFER FLAVOPROTEIN, PUTATIVE
  fold change vs vehicle control: 1.75
Protein LMJF.25.0260 DYNEIN LIGHT CHAIN 1, CYTOPLASMIC, PUTATIVE
  fold change vs vehicle control: 0.91
Protein LMJF.25.0910 C[…]
  fold change relative to vehicle control: 1.46
Protein LMJF.25.1180, ATPASE BETA SUBUNIT, PUTATIVE
  fold change vs vehicle control: 1.06
Protein LMJF.25.1610 HYPOTHETICAL PROTEIN, CONSERVED
  fold change: 0.79
Protein LMJF.25.1620 HY[…], CONSERVED
  fold change: 1.11
Protein LMJF.26.1240 HEAT SHOCK PROTEIN 70-RELATED PROTEIN
  fold change vs vehicle control: 1.01
Protein LMJF.26.1710 […] OXIDASE SUBUNIT V, PUTATIVE
  fold change vs vehicle control: 1.04
Protein LMJF.26.1960 HY[…], CONSERVED
  fold change vs vehicle control: 1.01
Protein LMJF.26.2000 HY[…], CONSERVED
  fold change vs vehicle control: 1.05
Protein LMJF.27.0420 RIBOKINASE, PUTATIVE
  fold change vs vehicle control: 1.05
Protein LMJF.27.1060 CYSTEINE DESULFURASE, PUTATIVE
  fold change vs vehicle control: 0.97
Protein LMJF.27.1310 ARGINYL-TRNA SYNTHETASE, PUTATIVE
  fold change: 1.05
Protein LMJF.27.2400 HEAT SHOCK PROTEIN DNAJ, PUTATIVE
  fold change vs vehicle control: 0.91
Protein LMJF.28.0110 […] 3 SUBUNIT, PUTATIVE
  fold change vs vehicle control: 1.04
Protein LMJF.28.0930 HYPOTHETICAL PROTEIN, CONSERVED
  fold change vs vehicle control: 1
Protein LMJF.28.0950 HY[…], CONSERVED
  fold change vs vehicle control: 1.07
Protein LMJF.28.1950 X-PRO, DIPEPTIDYL-PEPTIDASE,SERINE PEPTIDASE, CLAN SC, FAMILY S15, PUTATIVE
  fold change vs vehicle control: 0.94
Protein LMJF.28.2770 HEAT-SHOCK PROTEIN HSP70, PUTATIVE
  fold change relative to vehicle control: 1.15
Protein LMJF.29.0060 TRYPTOPHANYL-TRNA SYNTHETASE, PUTATIVE
  fold change: 1
Protein LMJF.29.0820 CYSTEINE PEPTIDASE C (CPC)
  fold change: 0.78
Protein LMJF.29.0850 HIGH MOBILITY GROUP PROTEIN HOMOLOG TDP-1, PUTATIVE
  fold change relative to vehicle control: 1.77
Protein LMJF.29.1160 TRYPAREDOXIN
  fold change vs vehicle control: 1
Protein LMJF.29.1760 PARAFLAGELLAR ROD PROTEIN 1D, PUTATIVE
  fold change: 0.77
Protein LMJF.29.1780 DIPHTHAMIDE SYNTHESIS PROTEIN, PUTATIVE
  fold change vs vehicle control: 0.62
Protein LMJF.29.2240 AMINOPEPTIDASE, PUTATIVE
  fold change vs vehicle control: 0.98
Protein LMJF.29.2310 ENOYL-COA HYDRATASE/ISOMERASE-LIKE PROTEIN
  fold change: 0.95
Protein LMJF.29.2860 40S RIBOSOMAL PROTEIN S19-LIKE PROTEIN
  fold change: 1.25
Protein LMJF.30.0850 SURFACE PROTEIN AMASTIN, PUTATIVE
  fold change vs vehicle control: 0.97
Protein LMJF.30.1250 PYRIDOXAL KINASE, PUTATIVE
  fold change: 1.06
Protein LMJF.30.2580 RETICULON DOMAIN PROTEIN, 22 KDA POTENTIALLY AGGRAVATING PROTEIN (PAPLE22)
  fold change: 1.3
Protein LMJF.30.3190 3-HYDROXY-3-METHYLGLUTARYL-COA REDUCTASE
  fold change vs vehicle control: 0.77
Protein LMJF.30.3520 S-ADENOSYL[…]
  fold change vs vehicle control: 1.09
Protein LMJF.31.0440 CYTOSKELETON-[…] CAP5 5, PUTATIVE
  fold change vs vehicle control: 0.82
Protein LMJF.31.1130 N-ACYL-L-AMINO ACID AMIDOHYDROLASE, PUTATIVE
  fold change: 0.74
Protein LMJF.31.1640 THIOLASE PROTEIN-LIKE PROTEIN
  fold change vs vehicle control: 1.14
Protein LMJF.31.1800 AMINO ACID PERMEASE
  fold change: 1.07
Protein LMJF.31.2250 3,2-TRANS-ENOYL-COA ISOMERASE, MIT[…], PUTATIVE
  fold change: 0.85
Protein LMJF.31.2790 ADP-RI[…], PUTATIVE
  fold change vs vehicle control: 1.12
Protein LMJF.31.3130 METHYLCROTONOYL-COA CARBOXYLASE BIOTINYLATED SUBUNITPROTEIN-LIKE PROTEIN
  fold change: 0.91
Protein LMJF.32.0010 HYPOTHETICAL PROTEIN, CONSERVED
  fold change: 0.92
Protein LMJF.32.0400 ATP-DEPENDENT RNA HELICASE, PUTATIVE
  fold change vs vehicle control: 1
Protein LMJF.32.0520 PROFILIN, PUTATIVE
  fold change vs vehicle control: 0.98
Protein LMJF.32.1000 CHAPERONIN CONTAINING T-COMPLEX PROTEIN, PUTATIVE
  fold change: 0.99
Protein LMJF.32.3010 HY[…], CONSERVED,LEUCINE-RICH REPEAT PROTEIN, PUTATIVE
  fold change vs vehicle control: 1.06
Protein LMJF.32.3870 MYOSIN XXI
  fold change vs vehicle control: 0.77
Protein LMJF.33.0890, HYPOTHETICAL PROTEIN, CONSERVED
  fold change vs vehicle control: 1.1
Protein LMJF.33.1070 HYPOTHETICAL PROTEIN, UNKNOWN FUNCTION
  fold change vs vehicle control: 0.91
Protein LMJF.33.1330 CYSTEINE CONJUGATE BETA-LYASE, AMINOTRANSFERASE- LIKE PROTEIN
  fold change: 1.04
Protein LMJF.33.1610 PEPTIDASE M20/M25/M40, PUTATIVE
  fold change: 0.82
Protein LMJF.33.1630 CYCLOPHILIN 4, PUTATIVE
  fold change relative to vehicle control: 1.08
Protein LMJF.33.2300 UDP-GLC 4'-EPIMERASE, PUTATIVE
  fold change vs vehicle control: 1.07
Protein LMJF.33.2390 HEAT SHOCK PROTEIN, PUTATIVE
  fold change vs vehicle control: 1.41
Protein LMJF.33.2410 HYPOTHETICAL PROTEIN, CONSERVED
  fold change: 0.95
Protein LMJF.33.3150 40S RIBOSOMAL PROTEIN S13, PUTATIVE
  fold change: 1.11
Protein LMJF.34.3500 RUVB-LIKE 1 DNA HELICASE, PUTATIVE
  fold change: 0.93
Protein LMJF.34.3670 VACUOLAR ATP SYNTHASE CATALYTIC SUBUNIT A, PUTATIVE
  fold change: 1.02
Protein LMJF.34.3740 SERINE PALMITOYLTRANSFERASE-LIKE PROTEIN
  fold change: 0.91
Protein LMJF.34.4120 HYPOTHETICAL PROTEIN, CONSERVED
  fold change: 0.82
Protein LMJF.34.4370 20S PROTEASOME BETA 7 SUBUNIT, (PUTATIVE)
  fold change vs vehicle control: 0.95
Protein LMJF.35.0370 ATP-DEPENDENT DEAD-BOX RNA HELICASE, PUTATIVE
  fold change: 1.01
Protein LMJF.35.1380, MITOCHONDRIAL PROCESSING PEPTIDASE, BETA SUBUNIT, PUTATIVE
  fold change vs vehicle control: 0.97
Protein LMJF.35.1410 THREONYL-TRNA SYNTHETASE, PUTATIVE
  fold change vs vehicle control: 0.94
Protein LMJF.35.1720 CYCLOPHILIN 14, PUTATIVE
  fold change vs vehicle control: 1.02
Protein LMJF.35.2500 HYPOTHETICAL PROTEIN, CONSERVED
  fold change: 0.72
Protein LMJF.35.2730 ACYL-COA DEHYDROGENASE, PUTATIVE
  fold change: 0.86
Protein LMJF.35.3010 […],TRYPANOTHIONE-DEPENDENT […]
  fold change relative to vehicle control: 1.13
Protein LMJF.35.3100 ATP-DEPENDENT RNA HELICASE, PUTATIVE
  fold change vs vehicle control: 0.99
Protein LMJF.35.3340 6-phosphogluconate dehydrogenase
  fold change vs vehicle control: 1.08
Protein LMJF.35.3700 GIM5A PROTEIN, PUTATIVE,GLYCOSOMAL MEMBRANE PROTEIN
  fold change: 0.94
Protein LMJF.35.3840, […] 2 SUBUNIT, PUTATIVE
  fold change vs vehicle control: 1.01
Protein LMJF.35.3860 T-COMPLEX PROTEIN 1, ETA SUBUNIT, PUTATIVE
  fold change vs vehicle control: 0.99
Protein LMJF.35.4550 HYPOTHETICAL PROTEIN, CONSERVED
  fold change: 0.97
Protein LMJF.35.4770 CYCLOPHILIN 40
  fold change: 1.17
Protein LMJF.35.4850 PROTEASOME ALPHA 1 SUBUNIT, PUTATIVE
  fold change: 0.91
Protein LMJF.35.4860 HYPOTHETICAL PROTEIN, CONSERVED
  fold change: 0.85
Protein LMJF.35.5330 ISOPENTENYL-DIPHOSPHATE DELTA-ISOMERASE, PUTATIVE,ISOMERASE, PUTATIVE
  fold change relative to vehicle control: 1.62
Protein LMJF.36.0180 […] 2
  fold change vs vehicle control: 1.03
Protein LMJF.36.0620 HY[…], CONSERVED
  fold change vs vehicle control: 1.34
Protein LMJF.36.0990 40S RIBOSOMAL PROTEIN S10, PUTATIVE
  fold change vs vehicle control: 1.1
Protein LMJF.36.2020 CHAPERONIN HSP60, MITOCHONDRIAL PRECURSOR
  fold change vs vehicle control: 0.95
Protein LMJF.36.3460 HYPOTHETICAL PROTEIN, CONSERVED
  fold change vs vehicle control: 0.82
Protein LMJF.36.3760 60S RIBOSOMAL PROTEIN L10A, PUTATIVE
  fold change: 1.26
Protein LMJF.36.3840 GLYCYL TRNA SYNTHETASE, PUTATIVE
  fold change vs vehicle control: 0.85
Protein LMJF.36.4170 OXIDOREDUCTASE, PUTATIVE
  fold change vs vehicle control: 0.84
Protein LMJF.36.5010 40S RIBOSOMAL PROTEIN SA, PUTATIVE
  fold change vs vehicle control: 1.09
Protein LMJF.36.5390 PHOSPHORIBOSYLPYROPHOSPHATE SYNTHETASE, PUTATIVE
  fold change: 0.86
Protein LMJF.36.5620 ISOLEUCYL-TRNA SYNTHETASE, PUTATIVE
  fold change vs vehicle control: 0.97
Protein LMJF.36.6430 PROTEIN TRANSPORT PROTEIN SEC23-LIKE PROTEIN
  fold change vs vehicle control: 0.85
Protein LMJF.36.6760 HY[…], CONSERVED
  fold change: 1.01
Protein LMJF.36.6910 T-COMPLEX PROTEIN 1, THETA SUBUNIT, PUTATIVE
  fold change vs vehicle control: 1
Protein LMJF.36.6940 disulfide isomerase PDI
  fold change vs vehicle control: 1.14
Protein LMJF.[…] […] EXOPOLYPHOSPHATASE, PUTATIVE
  fold change vs vehicle control: 1.19
